# Earlier results, collected in patent US20220193065A1, “COMPOSITIONS AND METHODS TO TREAT NON-ALCOHOLIC FATTY LIVER DISEASES (NAFLD)” (Coherus Biosciences, Inc., priority 2019, published 2022).
# Conditions: monotherapy; background statement
structure (smiles),measurement,value
Cc1cc(F)c(C(=O)Nc2cccc(-c3nncn3C(C)C)n2)cc1-n1cnc(C2CC2)c1 [selonsertib],primary endpoint of the STELLAR-4 phase 3 clinical trial,failed to meet the primary endpoint
